For two molecules, Activity and IC50 results are on record in ChEMBL document CHEMBL6103641, “Palladium-Catalyzed Late-Stage Functionalization of Natural Antitumor Drug: Synthesis and Bioactivity of 5-Aryl Camptothecins” (J Nat Prod, 2025).

Assay [1] has as its system HCT-116. Nature of the assay: Induction of apoptosis in human HCT-116 cells assessed as downregulation of Bcl-2 expression at 0.25 to 2 uM incubated for 24 hrs by western blot analysis. It counts as functional, cell-based. The following applies: dose 0.25-2 µM. Background: Immunoblotting shows a protein as a band on a membrane.
Assay [2] deals with HCT-116. Nature of the assay: Antiproliferative activity against human HCT-116 cells assessed as inhibition of colony growth at 2 uM incubated for 24 hrs by crystal violet staining based analysis. It counts as functional, cell-based.
In assay [3] the test system is HCT-116. The assay is described as follows: Cytotoxicity against human HCT-116 cells assessed as inhibition of cell viability incubated for 24 hrs by MTT assay. In kind it is functional, cell-based. To be noted: HCT-116, 24 h. In general terms: Formazan colour is commonly taken as a measure of viable cells.
Another assay relates to A549. Nature of the assay: Cytotoxicity against human A549 cells assessed as inhibition of cell viability incubated for 24 hrs by MTT assay. The following applies: A549, 24 h. It counts as functional, cell-based.
Assay [4] has as its system MCF7. The assay is described as follows: Cytotoxicity against human MCF7 cells assessed as inhibition of cell viability incubated for 24 hrs by MTT assay. It counts as functional, cell-based. The following applies: MCF7, 24 h.
The test system of assay [5] is HCT-116. Nature of the assay: Antiproliferative activity against human HCT-116 cells assessed as inhibition of colony growth incubated for 24 hrs by crystal violet staining based analysis. It counts as functional, cell-based. The following applies: dose 0.25-2 µM.
Assay [6] has as its system HCT-116. Nature of the assay: Induction of apoptosis in human HCT-116 cells assessed as upregulation of Bax expression at 0.25 to 2 uM incubated for 24 hrs by western blot analysis. In kind it is functional, cell-based. To be noted: dose 0.25-2 µM.
For assay [7], the system named is HCT-116. Nature of the assay: Induction of apoptosis in human HCT-116 cells assessed as upregulation of cleaved caspase-3 expression at 0.25 to 2 uM incubated for 24 hrs by western blot analysis. It counts as functional, cell-based. The following applies: dose 0.25-2 µM.
The test system of assay [8] is HCT-116. Nature of the assay: Induction of apoptosis in human HCT-116 cells at 2 uM incubated for 24 hrs by Annexin V-FITC/PI staining based flow cytometric analysis. In kind it is functional, cell-based. (Flow cytometry measures light scatter and fluorescence of single cells or particles in a stream.)
In assay [9] the test system is HCT-116. The assay is described as follows: Induction of cell cycle arrest in human HCT-116 cells assessed as accumulation at G2/M phase at 0.25 to 2 uM incubated for 24 hrs by PI staining based flow cytometry. To be noted: dose 0.25-2 µM. In kind it is functional.
Assay [10] relates to MCF7. Nature of the assay: Induction of cell cycle arrest in human MCF7 cells assessed as accumulation at G2/M phase at 0.25 to 2 uM incubated for 24 hrs by PI staining based flow cytometry. In kind it is functional. The following applies: dose 0.25-2 µM.
The test system of assay [11] is MCF7. Nature of the assay: Induction of apoptosis in human MCF7 cells at 2 uM incubated for 24 hrs by Annexin V-FITC/PI staining based flow cytometric analysis. It counts as functional, cell-based.
The subject of assay [12] is MCF7. Nature of the assay: Antiproliferative activity against human MCF7 cells assessed as inhibition of colony growth incubated for 24 hrs by crystal violet staining based analysis. It counts as functional, cell-based. To be noted: dose 0.25-2 µM.
Assay [13] has as its system MCF7. Nature of the assay: Antiproliferative activity against human MCF7 cells assessed as inhibition of colony growth at 2 uM incubated for 24 hrs by crystal violet staining based analysis. It counts as functional, cell-based.

Calls of active or inactive are those of the source. The rule behind the calls is not given here.

As to `CC[C@@]1(O)C(=O)OCc2c1cc1n(c2=O)[C@@H](c2c(OC)cccc2OC)c2cc3ccccc3nc2-1`, the outcome in the assay on HCT-116 [1], in the assay with HCT-116 [6], in the assay with HCT-116 [7] and in the assay on HCT-116 [9] was Active. In addition, the results for the Activity result in the assay on HCT-116 [2], in the assay on HCT-116 [5] and in the assay on HCT-116 [8] were “Active; Superior Activity Compared To Camptothecin Observed”, “Dose-dependent-effect” and “Active; Superior Activity Compared To Camptothecin Observed”, respectively. The values for the IC50 with HCT-116 [3], in the assay on A549 and with MCF7 [4] were 50 nM, above 10000 nM and 400 nM, respectively.

With `CC[C@@]1(O)C(=O)OCc2c1cc1n(c2=O)[C@H](c2cc(C)cc(C)c2)c2cc3ccccc3nc2-1`, the IC50 (in general, the midpoint of a concentration-inhibition curve) in the assay with HCT-116 [3] was above 10000 nM; with A549 it was above 10000 nM; with MCF7 [4], 40 nM. The outcome in the assay with MCF7 [10] was Active. The Activity result is “Active; Superior Activity Compared To Camptothecin Observed” with MCF7 [11], “Dose-dependent-effect” in the assay on MCF7 [12] and “Active; Superior Activity Compared To Camptothecin Observed” with MCF7 [13].
